Results reported in patent US20230346943A1, “SPACER-MEDIATED CONTROL OF UNCAGING PHOTOCAGED MOLECULES” (The Regents of the University of California, priority 2020, published 2023).

Columns and labels:
[1] = Photolysis (photon uncaging) kinetics of photocaged thymidine monitored by UPLC; format: physicochemical; settings: for Rate constant (first order) for the decay of photocaged thymidine (kdecay) / Quantum efficiency (Φ) of release for thymidine (dT) / Quantum efficiency (Φ) of release for thymidine-retaining byproduct(s): 35% (v/v) aq methanol; for Efficiency of thymidine release (max): maximal free thymidine released on photolysis; for Formation of thymidine-bearing byproduct dT^N-DEACM on photolysis: regardless of the light wavelength (365, 420, 455 nm)
Procedure: Photolysis of 1 was performed in an aqueous medium (0.21 mM in 35% (v/v) aq methanol), and its uncaging kinetics was determined by monitoring exposed solutions using UV-vis spectroscopy and UPLC (FIGS. 3A-3D). UV-vis spectra acquired after photolysis at 420 nm (exposure time = 0-20 min) show absorption changes in an exposure time-dependent manner (FIGS. 5A-5F), but these are not applicable for the detection and quantitation of thymidine released. In contrast, UPLC traces acquired after photolysis (FIG. 3A) show the disappearance of 1 with the concomitant growth of free thymidine (dT) (tr = 3.1 min) along with coumarin photocage detached 5 (tr = 6.5 min). The area under curve (AUC) analysis of these peaks provided a decay curve for 1 (FIG. 3B). Its regression analysis allowed determining a rate constant for first-order decay (kdecay = 1.5 ×10^-3 sec^-1), and quantum efficiency for thymidine release (ΦdT = 0.015) (Table 1).
We similarly evaluated the uncaging kinetics of 2 dT^O-Bn-DEACM (0.17 mM in 35% (v/v) aq methanol) by irradiation at 420 nm (FIGS. 3C-3D). Its photolysis led to smaller changes in UV-vis spectra with lack of a clear trend compared to 1 dT^O-DEACM (FIGS. 5A-5F). Overlaid UPLC traces show time-dependent, rapid uncaging of 2 with ~65% release of thymidine achieved after an initial exposure for 5 min. […] Regression analysis of its decay curve provided a decay constant (kdecay = 1.1×10^-3 sec^-1), which is slightly lower than that of 1 (Table 1). However, its lack of the byproduct formation makes a positive contribution to enhancing its quantum efficiency for thymidine release (ΦdT = 0.025) compared to 1 (ΦdT = 0.015). This clean uncaging kinetics offers evidence for greater advantages in thymidine uncaging by the extended spacer than the direct ether linkage.
UPLC was performed for homogeneity analysis and compound characterization in a Waters Acquity System combined with a photodiode array (PDA) detector. The UPLC analysis involved running a sample in a C4 BEH column (100 × 2.1 mm, 300 Å) at a flow rate of 0.2 mL min^-1. The elution occurred in a linear gradient composed of two mobile solvents, water and acetonitrile, each containing TFA (0.1% v/v) (eluent A and B respectively). Its method consisted of an initial phase 1% B (0-1.4 min), a linear increased to 80% B (1.4-13.4 min), a decrease to 50% B (13.4-13.8 min), a decrease to 1% B (13.8-14.4 min) and finally an isocratic elution at 1% B (14.4-18 min). This method was also applied for the kinetic analysis of product release.
Light Sources. Photolytic studies for thymidine release were performed with three light sources. These include: i) UV lamp (XX-15A, Spectroline®) for irradiation at long wavelength UV light (UVA) with a maximal intensity at 365 nm;^4 ii) LZC-420 lamp (Luzchem Research) for visible light at 420 nm; iii) LZC-LBL light emitting diode (LED) lamp (Luzchem Research) for visible (blue) light 445-465 nm. Photon flux density (qn,p = qp/NA, mol × s^-1) of each lamp was determined by ferrioxalate actinometry according to a standard protocol.^52, ^53 […]
Uncaging Kinetics and Analysis. Typically, a solution of photocaged thymidine 1 or 2 (dT^caged: 0.05-0.1 mg/mL) in aq methanol (30-35% v/v) was prepared and exposed to the light at a distance of ~5 cm. After each exposure period, the solution was aliquoted out as a function of irradiation time (0-30 min), and each aliquot was analyzed by UPLC and UV-vis absorption spectrometry to determine the kinetics of thymidine release and byproduct formation. Certain aliquot was further analyzed by HPLC-MS mass spectrometry (ESI) to validate the identity of thymidine and released molecular species in the photolysed solution.
Quantum efficiency (Φ) for the release of thymidine (dT) is defined in eq 1, and its value was calculated according to a standard method as noted in eq 2:^53 […]

[2] = UV-vis absorption property; settings: for λmax: UV-vis spectrum; for λmax / Molar absorptivity ε at λmax: 35% aq methanol
Procedure: We observed the absorption properties of the coumarin (DEACM), a common photocage present in 1 and 2, as shown in their UV-vis spectra (FIG. 2A).
Spectra for UV-vis Absorption Were Recorded With a Perkin Elmer Lamda 20 Spectrophotometer.

[3] = photon uncaging ability of the N-isomer; cited from earlier work

Row | Quantum efficiency (Φ) of release for thymidine (dT) ([1]; irradiation 365 nm) | Quantum efficiency (Φ) of release for thymidine-retaining byproduct(s) ([1]; irradiation 365 nm) | Quantum efficiency (Φ) of release for thymidine (dT) ([1]; irradiation 420 nm) | Quantum efficiency (Φ) of release for thymidine-retaining byproduct(s) ([1]; irradiation 420 nm) | Quantum efficiency (Φ) of release for thymidine (dT) ([1]; irradiation 455 nm) | Quantum efficiency (Φ) of release for thymidine-retaining byproduct(s) ([1]; irradiation 455 nm) | Efficiency of thymidine release (max) [1] | Formation of thymidine-bearing byproduct dT^N-DEACM on photolysis [1] | λmax [2] | Molar absorptivity ε at 455 nm [2] | Molar absorptivity ε at λmax [2] | Undesired species (tr = 7.8 min) in UPLC traces after photolysis ([1]; irradiation 420 nm) | Release of thymidine after initial exposure ([1]; irradiation 420 nm, exposure 5 min) | Efficiency of thymidine release (max) ([1]; listed as new photocaged thymidine) | Compound | Rate constant (first order) for the decay of photocaged thymidine (kdecay) ([1]; irradiation 365 nm (UVA)) | Rate constant (first order) for the decay of photocaged thymidine (kdecay) ([1]; irradiation 420 nm (visible)) | Rate constant (first order) for the decay of photocaged thymidine (kdecay) ([1]; irradiation 455 nm (visible)) | Decay on irradiation relative to 1 dT^O-DEACM [3] | Faster decay than 1 at 455 nm ([1]; irradiation 455 nm, relative to 1) | Photolysis rate at 455 nm lower than at 420 nm ([1]; ratio of decay rates, 455 nm vs 420 nm)
1 | 0.006 | 0.005 | 0.015 | 0.017 | 0.017 | 0.023 | 58% | induces a thymidine-bearing byproduct | 393 nm | 1,115 M^-1cm^-1 | 10,209 M^-1cm^-1 | – | – | – | CCN(CC)c1ccc2c(COc3nc(=O)n([C@H]4C[C@H](O)[C@@H](CO)O4)cc3C)cc(=O)oc2c1 [Compound 1, dT^O-DEACM, reference compound] | 0.00089 s⁻¹ | 0.0015 s⁻¹ | 0.00012 s⁻¹ | – | – | –
2 | – | – | – | – | – | – | – | – | – | – | – | – | – | – | CCN(CC)c1ccc2c(Cn3c(=O)c(C)cn(C4CC(O)C(CO)O4)c3=O)cc(=O)oc2c1 (stereo not shown) [dT^N-DEACM] | – | – | – | approximately two orders of magnitude more slowly | – | –
3 | 0.014 | – | 0.025 | – | 0.081 | – | 94% | lack of the byproduct formed | 390 nm | 1,653 M^-1cm^-1 | 11,603 M^-1cm^-1 | have not observed the undesired species | ~ 65% | ~ 94% | dT^O-Bn-DEACM [Compound 2] | 0.0011 s⁻¹ | 0.0011 s⁻¹ | 0.00058 s⁻¹ | – | ~ 5 Fold | approximately 2 Fold
